Assay results reported in patent US20260364080A1, “PYRAZOLO-PYRIMIDINONE COMPOUNDS FOR USE IN METHODS OF INHIBITING WEE1 A KINASE” (Acrivon Therapeutics, Inc., priority 2023, published 2026).
Like-named read-outs stand apart in the source and are kept apart here.

Key:
[1] = molecular target: T1, Wee1A kinase (CDK1 Tyr15 phosphorylation in ACHN renal cell carcinoma cells) (Homo sapiens, UniProt P30291); assay: High-content imaging of pCdk1 Y15, Wee1A kinase target engagement in ACHN cells; format: cell-based
T1 construct: pCDK1 Tyr15 immunofluorescence read-out
Summary of the method: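 ACHN cells exposed to compound for 4 h over 7–5,000 nM or 0.3–200 nM, then fixed and immunostained for pCDK1 Y15 with DAPI nuclear counterstain. The percentage of pCdk1 Y15 nucleus-positive cells relative to DMSO control was imaged per well; EC50 from dose-response curves.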

[2] = molecular target: T2, Myt1 kinase (recombinant PMYT-1) (Homo sapiens, UniProt Q99640); assay: Myt1 kinase binding assay (LanthaScreen Eu Kinase Binding Assay)
T2 construct: full length PMYT-1 was expressed by baculovirus in insect cells; purchased Invitrogen A30984; host or cells: insect cells (baculovirus)
T2 sequence (Q99640 1-499): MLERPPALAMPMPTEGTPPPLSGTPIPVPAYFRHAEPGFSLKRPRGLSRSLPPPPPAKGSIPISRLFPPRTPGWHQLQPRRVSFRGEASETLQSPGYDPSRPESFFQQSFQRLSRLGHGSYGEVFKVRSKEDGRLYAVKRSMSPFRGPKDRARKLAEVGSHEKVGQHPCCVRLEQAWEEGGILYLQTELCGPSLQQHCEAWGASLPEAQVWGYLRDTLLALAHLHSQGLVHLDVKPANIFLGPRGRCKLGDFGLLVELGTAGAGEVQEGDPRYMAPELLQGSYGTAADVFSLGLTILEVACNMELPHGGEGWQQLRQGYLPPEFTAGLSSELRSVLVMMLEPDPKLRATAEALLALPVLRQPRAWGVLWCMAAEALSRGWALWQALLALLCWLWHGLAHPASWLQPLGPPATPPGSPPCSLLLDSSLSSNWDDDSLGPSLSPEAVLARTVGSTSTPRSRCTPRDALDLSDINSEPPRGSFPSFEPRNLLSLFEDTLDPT
Summary of the method: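 The binding affinity of compounds for Myt1 kinase was measured with a LanthaScreen Europium (Eu) Kinase Binding Assay, a time-resolved FRET format in which test compounds compete against a labeled kinase tracer, and the results were expressed as IC50 values describing compound binding to Myt1.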

[3] = molecular target: T3, recombinant human Wee1A kinase (Homo sapiens, UniProt P30291); assay: Wee1A kinase binding assay (LanthaScreen Eu time-resolved FRET)
T3 construct: full length Wee1 kinase was expressed by baculovirus in insect cells; purchased Invitrogen PV3817; host or cells: insect cells (baculovirus)
Summary of the method: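 Full-length, baculovirus-expressed GST-tagged Wee1A (5 nM) was mixed with 2 nM Eu-anti-GST antibody, 30 nM kinase tracer 178 and compound (1% DMSO). Buffer was 50 mM HEPES pH 7.5, 10 mM MgCl2, 1 mM EGTA, 0.01% Brij-35, incubated 60 min at room temperature. TR-FRET 665/615 nm emission ratios from duplicates were curve-fitted.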

ACHN cells = assay: Cell Titer Glo viability assay, ACHN cells; format: cell-based; details: Homo sapiens, 144 h, absolute EC50
Experimental: Each of an ACHN renal cell carcinoma cell line (ATCC) and a DAOY medulloblastoma cell line, and an A427 lung cancer line were cultured in Minimum Essential Medium Eagle supplemented with 10% fetal calf serum (Sigma), 1% Penicillin-Streptomycin and 10 mM HEPES buffer (HyClone). Cell cultures were kept in a humidified incubator at 37 °C and 5% CO2. Cells were routinely tested for Mycoplasma contamination.
ACHN cells, DAOY cells, or A427 cells were seeded at a density of 400, 250, or 500 cells per well respectively, in tissue culture treated 384 well plates (Corning Costar). After overnight incubation, cells were treated with drugs at concentrations ranging from 17 to 10 000 nM. Viability compared to untreated control was assessed at 144 h using Cell Titer Glo assay 2.0 (Promega). […] “NT” means the compounds was not tested in the indicated cells.

[4] = 4 h treatment, nuclear positivity for pCdk1 Y15 vs DMSO control, read-out: CDK1 Tyr15 Phosphorylation EC50
[5] = 3 nM tracer 178, 2.5 nM PMYT-1, 1 nM Eu-labeled antibody, read-out: Myt1 kinase Binding IC50
[6] = 30 nM tracer 178, 5 nM Wee1A kinase, 2 nM Eu-labeled antibody, 60 minutes at room temperature, read-out: Wee1A kinase Binding IC50

T3 sequence (P30291 whole entry): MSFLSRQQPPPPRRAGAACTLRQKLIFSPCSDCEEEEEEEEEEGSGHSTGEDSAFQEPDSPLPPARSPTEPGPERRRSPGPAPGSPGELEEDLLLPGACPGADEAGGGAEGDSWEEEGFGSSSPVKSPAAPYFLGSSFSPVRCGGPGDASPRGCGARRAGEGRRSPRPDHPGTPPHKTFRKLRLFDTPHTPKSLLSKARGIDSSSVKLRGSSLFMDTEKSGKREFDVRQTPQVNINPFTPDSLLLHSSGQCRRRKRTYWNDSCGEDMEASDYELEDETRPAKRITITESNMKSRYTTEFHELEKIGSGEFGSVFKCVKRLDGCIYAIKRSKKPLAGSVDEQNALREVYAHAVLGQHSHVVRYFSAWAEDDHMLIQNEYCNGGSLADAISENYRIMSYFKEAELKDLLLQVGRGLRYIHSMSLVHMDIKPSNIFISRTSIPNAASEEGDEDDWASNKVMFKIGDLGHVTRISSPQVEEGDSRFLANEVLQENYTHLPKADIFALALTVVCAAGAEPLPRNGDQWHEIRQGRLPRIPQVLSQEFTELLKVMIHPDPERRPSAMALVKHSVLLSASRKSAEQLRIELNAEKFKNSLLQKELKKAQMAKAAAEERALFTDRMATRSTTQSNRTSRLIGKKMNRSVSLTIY
T1 sequence (P30291 whole entry): as above

Structure (SMILES) | EC50 [1, 4] | IC50 [2, 5] | IC50 [3, 6] | EC50 (ACHN cells) | EC50 ([1]; read-out: CDK1 Tyr15 Phosphorylation EC50, 4 h treatment, nuclear positivity for pCdk1 Y15 vs DMSO control) | IC50 ([2]; Myt1 kinase Binding IC50, 3 nM tracer 178, 2.5 nM PMYT-1, 1 nM Eu-labeled antibody) | IC50 [3]
C=CCn1c(=O)c2cnc(Nc3ccc4nc(C)oc4c3)nc2n1-c1cccc(OC2CCNCC2)n1 [Compound 316, 2-allyl-6-(2-methyl-1,3-benzoxazol-6-ylamino)-1-[6-(4-piperidyloxy)-2-pyridyl]-1,2-dihydro-3H-1,2,5,7-tetraazainden-3-one] | < 0.1 µM | 0.02 to 0.1 µM | < 0.01 µM | 0.1 to 0.5 µM |  |  | 
C=CCn1c(=O)c2cnc(Nc3cc(C)nc(C)c3)nc2n1-c1cccc(OC2CCN(C)CC2)n1 [Compound 199, 6-[(2,6-dimethylpyridin-4-yl)amino]-1-{6-[(1-methylpiperidin-4-yl)oxy]pyridin-2-yl}-2-(prop-2-en-1-yl)-1H,2H,3H-pyrazolo[3,4-d]pyrimidin-3-one] | < 0.1 µM | 0.1 to 0.5 µM | < 0.01 µM | 0.1 to 0.5 µM |  |  | 
CCn1c(=O)c2cnc(Nc3ccc(C#N)cc3)nc2n1-c1cccc(OC2CCN(C)CC2)n1 [Compound 310, p-{2-ethyl-1-[6-(1-methyl-4-piperidyloxy)-2-pyridyl]-3-oxo-1,2-dihydro-3H-1,2,5,7-tetraazainden-6-ylamino}benzonitrile] | 0.1 to 0.5 µM | 0.02 to 0.1 µM | < 0.01 µM | 0.1 to 0.5 µM |  |  | 
C=CCn1c(=O)c2cnc(Nc3ccc(F)cc3)nc2n1-c1cccc(OC2CCNCC2)n1 [Compound 304, 2-allyl-6-(p-fluorophenylamino)-1-[6-(4-piperidyloxy)-2-pyridyl]-1,2-dihydro-3H-1,2,5,7-tetraazainden-3-one] | < 0.1 µM | 0.02 to 0.1 µM | < 0.01 µM | 0.1 to 0.5 µM |  |  | 
C=CCn1c(=O)c2cnc(Nc3ccc4scnc4c3)nc2n1-c1cccc(OC2CCNCC2)n1 [Compound 246, 2-allyl-6-(benzo[d]thiazol-5-ylamino)-1-(6-(piperidin-4-yloxy)pyridin-2-yl)-1,2-dihydro-3H-pyrazolo[3,4-d]pyrimidin-3-one] | < 0.1 µM | < 0.02 µM | < 0.01 µM | 0.1 to 0.5 µM |  |  | 
C=CCn1c(=O)c2cnc(Nc3ccc(OCC(F)(F)F)cc3)nc2n1-c1cccc(NC2CCN(C)CC2)n1 [Compound 139, 2-allyl-1-[6-(1-methyl-4-piperidylamino)-2-pyridyl]-6-[p-(2,2,2-trifluoroethoxy)phenylamino]-1,2-dihydro-3H-1,2,5,7-tetraazainden-3-one] | 0.1 to 0.5 µM | 0.1 to 0.5 µM | < 0.01 µM | 0.1 to 0.5 µM |  |  | 
C=CCn1c(=O)c2cnc(Nc3cnn(CCC)c3)nc2n1-c1cccc(OC2CCN(C)CC2)n1 [Compound 180, 2-allyl-1-[6-(1-methyl-4-piperidyloxy)-2-pyridyl]-6-(1-propyl-4-pyrazolylamino)-1,2-dihydro-3H-1,2,5,7-tetraazainden-3-one] | < 0.1 µM | 0.1 to 0.5 µM | < 0.01 µM | ≤ 0.1 µM |  |  | 
C=CCn1c(=O)c2cnc(Nc3ccnc(C)c3)nc2n1-c1cccc(OC2CCNCC2)n1 [Compound 113, 2-allyl-6-(2-methyl-4-pyridylamino)-1-[6-(4-piperidyloxy)-2-pyridyl]-1,2-dihydro-3H-1,2,5,7-tetraazainden-3-one] | 0.5 to 1 µM | 0.02 to 0.1 µM | < 0.01 µM | > 1 µM |  |  | 
C=CCn1c(=O)c2cnc(Nc3ccc(OCC(F)(F)F)cc3)nc2n1-c1ccnc(OC2CCNCC2)n1 [Compound 252, 2-allyl-1-(2-(piperidin-4-yloxy)pyrimidin-4-yl)-6-((4-(2,2,2-trifluoroethoxy)phenyl)amino)-1,2-dihydro-3H-pyrazolo[3,4-d]pyrimidin-3-one] | < 0.1 µM | 0.02 to 0.1 µM | < 0.01 µM | 0.1 to 0.5 µM |  |  | 
C=CCn1c(=O)c2cnc(Nc3ccc(OCC(F)(F)F)cc3)nc2n1-c1cccc(OC2CCNCC2)n1 [Compound 227, 2-allyl-1-[6-(4-piperidyloxy)-2-pyridyl]-6-[p-(2,2,2-trifluoroethoxy)phenylamino]-1,2-dihydro-3H-1,2,5,7-tetraazainden-3-one] | < 0.1 µM | < 0.02 µM | < 0.01 µM | ≤ 0.1 µM |  |  | 
CCn1c(=O)c2cnc(Nc3ccc(F)cc3)nc2n1-c1cccc(OC2CCN(C)CC2)n1 [Compound 290, 2-ethyl-6-(p-fluorophenylamino)-1-[6-(1-methyl-4-piperidyloxy)-2-pyridyl]-1,2-dihydro-3H-1,2,5,7-tetraazainden-3-one] | 0.1 to 0.5 µM | 0.1 to 0.5 µM | < 0.01 µM | 0.1 to 0.5 µM |  |  | 

Now from value to molecule:

EC50 [1, 4] | IC50 [2, 5] | IC50 [3, 6] | EC50 (ACHN cells) | EC50 ([1]; read-out: CDK1 Tyr15 Phosphorylation EC50, 4 h treatment, nuclear positivity for pCdk1 Y15 vs DMSO control) | IC50 ([2]; Myt1 kinase Binding IC50, 3 nM tracer 178, 2.5 nM PMYT-1, 1 nM Eu-labeled antibody) | IC50 [3] | Structure (SMILES)
0.1 to 0.5 µM | 0.02 to 0.1 µM | < 0.01 µM | 0.1 to 0.5 µM |  |  |  | CCn1c(=O)c2cnc(Nc3ccc4c(cnn4C)c3)nc2n1-c1cccc(OC2CCNCC2)n1 [Compound 306, 2-ethyl-6-(1-methyl-1H-indazol-5-ylamino)-1-[6-(4-piperidyloxy)-2-pyridyl]-1,2-dihydro-3H-1,2,5,7-tetraazainden-3-one]
< 0.1 µM | 0.1 to 0.5 µM | < 0.01 µM | ≤ 0.1 µM |  |  |  | C=CCn1c(=O)c2cnc(Nc3ccc(F)c(C)c3)nc2n1-c1cccc(NC2CCN(C)CC2)n1 [Compound 140, 2-allyl-6-(4-fluoro-3-toluidino)-1-[6-(1-methyl-4-piperidylamino)-2-pyridyl]-1,2-dihydro-3H-1,2,5,7-tetraazainden-3-one]
< 0.1 µM | > 0.5 µM | < 0.01 µM | 0.1 to 0.5 µM |  |  |  | C=CCn1c(=O)c2cnc(Nc3ccc4c(cnn4C)c3)nc2n1-c1cccc(NC2CCN(C)CC2)c1 [Compound 226, 2-allyl-6-(1-methyl-1H-indazol-5-ylamino)-1-[m-(1-methyl-4-piperidylamino)phenyl]-1,2-dihydro-3H-1,2,5,7-tetraazainden-3-one]
 |  |  | ≤ 0.1 µM | < 0.1 µM | > 0.5 µM | < 0.01 µM | C=CCn1c(=O)c2cnc(Nc3ccc4c(cnn4C)c3)nc2n1-c1cccc(N(C)C2CCN(C)CC2)n1 [Compound 118, 1-{6-[N-methyl(1-methyl-4-piperidyl)amino]-2-pyridyl}-2-allyl-6-(1-methyl-1H-indazol-5-ylamino)-1,2-dihydro-3H-1,2,5,7-tetraazainden-3-one]
< 0.1 µM | > 0.5 µM | < 0.01 µM | 0.1 to 0.5 µM |  |  |  | CCn1c(=O)c2cnc(Nc3ccc4c(cnn4C)c3)nc2n1-c1cccc(NC2CCN(C)CC2)n1 [Compound 288, 2-ethyl-6-[(1-methyl-1H-indazol-5-yl)amino]-1-{6-[(1-methylpiperidin-4-yl)amino]pyridin-2-yl}-1H,2H,3H-pyrazolo[3,4-d]pyrimidin-3-one]
< 0.1 µM | 0.1 to 0.5 µM | < 0.01 µM | ≤ 0.1 µM |  |  |  | C=CCn1c(=O)c2cnc(Nc3ccc(OCC(F)(F)F)c(C)c3)nc2n1-c1cccc(NC2CCN(C)CC2)n1 [Compound 181, 2-allyl-1-[6-(1-methyl-4-piperidylamino)-2-pyridyl]-6-[4-(2,2,2-trifluoroethoxy)-3-toluidino]-1,2-dihydro-3H-1,2,5,7-tetraazainden-3-one]
< 0.1 µM | 0.02 to 0.1 µM | < 0.01 µM | 0.1 to 0.5 µM |  |  |  | C=CCn1c(=O)c2cnc(Nc3ccc4c(cnn4C)c3)nc2n1-c1cccc(N[C@H]2CCN(C)C2)n1 [Compound 108, 1-{6-[(S)-1-methyl-3-pyrrolidinylamino]-2-pyridyl}-2-allyl-6-(1-methyl-1H-indazol-5-ylamino)-1,2-dihydro-3H-1,2,5,7-tetraazainden-3-one]
